From patent US12569512B2, “Heparan sulfate (HS) oligosaccharides effect in liver ischemia reperfusion injury” (The University of North Carolina at Chapel Hill, priority 2019, dated 2026)
pIC50: −log10 of the molar value.

Assays:
human FXa (Homo sapiens) [1] = tested on: T1, human FXa (Homo sapiens); assay: In vitro anti-FXa activity of oligosaccharides (chromogenic, with antithrombin); type: biochemical; conditions: for anti-FXa activity (anticoagulant activity): 0-131 nM
T1 construct: purchased Enzyme Research Laboratories (FXa); Cutter Biologics (antithrombin)
T1 sequence (P01008 33-464): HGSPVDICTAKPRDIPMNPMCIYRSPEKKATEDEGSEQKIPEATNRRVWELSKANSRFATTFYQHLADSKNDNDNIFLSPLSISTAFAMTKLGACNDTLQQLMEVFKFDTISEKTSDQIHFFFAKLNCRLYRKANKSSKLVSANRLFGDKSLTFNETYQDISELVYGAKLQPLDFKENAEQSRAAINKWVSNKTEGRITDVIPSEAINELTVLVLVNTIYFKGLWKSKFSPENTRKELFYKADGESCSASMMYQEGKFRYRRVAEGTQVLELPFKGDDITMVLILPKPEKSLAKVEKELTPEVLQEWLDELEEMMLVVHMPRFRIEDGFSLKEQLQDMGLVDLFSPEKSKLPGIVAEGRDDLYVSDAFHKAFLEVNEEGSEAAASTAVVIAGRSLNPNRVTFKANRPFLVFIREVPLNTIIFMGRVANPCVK
Experimental: (§1) Assays were based on a previously published method. Briefly, human FXa (Enzyme Research Laboratories) was diluted to 50 U ml^−1 with PBS. The chromogenic substrate S-2765 (Diapharma) was diluted to 1 mg ml^−1 in water. For in vitro studies, fondaparinux (available under the trade name ARIXTRA) and 12-mer oligosaccharides were dissolved in PBS at various concentrations (0-131 nM). 16 μl of sample was incubated with 60 μl of […] antithrombin (Cutter Biologics) for 2 min at room temperature. Next, 100 μl of FXa was added and incubated for 4 min at room temperature. 30 μl of S-2765 substrate was added and the absorbance of the reaction mixture was measured at 405 nm continuously for 5 min. PBS serves as a control sample. The maximum slope for each sample was convert to percent FXa activity by dividing by the maximum slope for the control sample.

liver IR injury in rats = conditions: cited from earlier work
HMGB1 = target: T2, HMGB1 (Mus musculus, UniProt P63158); assay: Affinity purification (pulldown) of HMGB1 from liver lysate with biotinylated oligosaccharides, Western analysis; type: binding; conditions: biotinylated oligosaccharide 0.1 mM, Western blot
T2 construct: used to pull down endogenous HMGB1 from liver lysate; from tissue; host or cells: liver lysate
T2 sequence (P63158 1-215): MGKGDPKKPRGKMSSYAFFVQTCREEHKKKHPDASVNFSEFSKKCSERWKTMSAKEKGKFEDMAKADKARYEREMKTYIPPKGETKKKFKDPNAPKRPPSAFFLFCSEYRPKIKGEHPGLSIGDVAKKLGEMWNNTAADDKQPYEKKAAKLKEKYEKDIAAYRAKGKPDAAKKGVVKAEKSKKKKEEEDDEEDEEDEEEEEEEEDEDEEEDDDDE
Experimental: The oligosaccharides were converted to biotinylated versions using the same method as described in PCT International Patent Application Serial No. PCT/US2018/059152. Briefly, 12-mers and 6-mer-AXa with a pNP tag (5-10 mg) and 0.5 mg Pd/C were dissolved in 20 mM NaOAc, pH 5.0 in a total volume of 4 ml. Reaction mixture was vacuumed and refilled with H2 three times. The reaction was then incubated at room temperature for 4 h. After that, it was filtered to remove charcoal. The filtered solution was adjusted to pH 8.5 using 500 mM Na2HPO4. Succinimidyl 6-azidohexanoate (20 molar equivalent of starting oligosaccharides) was added and incubated at 37° C. overnight. Reaction was purified by DEAE-HPLC column to generate azido tagged oligosaccharides. PBS (pH7.4) buffer was bubbled with N2 for 5 min to prepare the sample solution of 0.1 M CuSO4, 0.1 M Tris(3-hydroxypropyl-triazolylmethyl)amine (THPTA)(Sigma), 0.15 M sodium ascorbate, 0.01 M azido tagged oligosaccharides and 0.02 M biotin-PEG4-alkyne (Sigma). The mixture of […] and 80 μl CuSO4 was vortexed, then 160 μl sodium ascorbate, 200 μl azido tagged oligomers and 200 μl biotin-PEG4-alkyne was added and bubbled with N2 for 2 min, then incubated at 37° C. overnight. The reaction was purified by DEAE-HPLC column to generate biotinylated products. The biotinylated 12-mers and 6-mer-AXa products were confirmed by ESI-MS.
Briefly, liver lysate was prepared by snap freezing tissue in liquid nitrogen at the time of sacrifice. The tissue was mechanically homogenized in buffer containing 200 mM MES, 500 mM phosphate, and 1 mM EDTA at pH 6 followed by three rounds of freeze thawing. The lysed sample were centrifuged at 10,000× g for 15 min at 4° C. Biotinylated HS oligosaccharides (final concentration 0.1 mM) were mixed with 20 μl of fresh liver lysate (˜0.6 mg) in 100 mM NaCl 20 mM HEPES pH 7.2 and incubated overnight at 4° C. The purification and biotinylated HS bound complex where achieved using avidin-Sepharose and increasing concentration of NaCl washes. […]

FXa (Homo sapiens) = tested on: T3, FXa (Homo sapiens); assay: Ex vivo plasma FXa activity of mice after liver IR; type: in vivo, mouse; conditions: 1 mg/kg SC 30 min before ischemia; plasma after 6 h reperfusion; vs IR
T3 construct: purchased Enzyme Research Laboratories (FXa); Cutter Biologics (antithrombin)
T3 sequence (P01008 33-464): as the sequence (P01008 33-464) above
Experimental: as §1
For ex vivo studies, mouse plasma collected after the 6 hour reperfusion period and assayed the same as described above.
Liver ischemia-reperfusion (IR) surgery was performed by the Animal Surgery Core Laboratory of the McAllister Heart Institute, University of North Carolina Chapel Hill, NC. The mouse experiments were approved by the UNC Animal Care and Use Committees and complied with National Institutes of Health guidelines. Male C57BL/6J mice, approximately 8 weeks old, were used in the IR surgeries. […]

[2] = tested on: liver IR injury mouse model; assay: Liver ischemia-reperfusion (IR) injury mouse model: plasma markers and histology; type: in vivo; conditions: 6 h reperfusion, vs IR; for plasma ALT / hepatic necrotic area in ischemic lobe (H&E): 1 mg/kg SC 30 min before 60 min ischemia; for neutrophil infiltration into ischemic liver (immunohistochemistry): 1 mg/kg SC
Experimental: Liver ischemia-reperfusion (IR) surgery was performed by the Animal Surgery Core Laboratory of the McAllister Heart Institute, University of North Carolina Chapel Hill, NC. The mouse experiments were approved by the UNC Animal Care and Use Committees and complied with National Institutes of Health guidelines. Male C57BL/6J mice, approximately 8 weeks old, were used in the IR surgeries. Mice received a subcutaneous (SC) injection of 1 mg/kg oligosaccharide or the equivalent volume of saline 30 minutes prior to the surgical procedure. For the combination treatment of 12-mer-3+6-mer-AXa, equal concentration of each oligosaccharide was combined into a single solution. Under ketamine/xylazine anesthesia, an abdominal midline incision was made to expose the portal vein. A clamp was placed on the portal vein and bile duct to three major liver lobes to cause a 70% hepatic ischemia. Visible blanching of the ischemic liver lobes confirmed correct placement of the clamp. A temporary stitch closure of the muscle and skin over the clamp was used to prevent dehydration during the ischemia phase. Mice stayed on a heating pad and under anesthesia during the ischemia phase (60 minutes). The clamp was removed after 60 minutes and the ischemia liver lobes regained their red color as blood began to reperfusion the tissue, an indicator of correct reperfusion occurring. The incisions were closed in two layers with 5-0 silk sutures and the mice returned to their active state (no anesthesia used during the reperfusion phase). After 6 hours, the mice were re-anaesthetized, blood was drawn via cardiac puncture and ischemia liver lobes were harvested for histology (fixed in 10% formalin).
Plasma ALT was measured using the ALT Infinity reagent (Thermo Fisher) following the manufacturer's instructions. Plasma TNF-α was measured using Mouse TNF-α DuoSet Kit (R&D Systems) according to the manufacturer's instructions. Plasma HMGB1 levels were determined using HMGB1 ELISA Kit (Tecan US) according to the manufacturer's instructions. Plasma syndecan-1 levels were determined using Mouse Syndecan-1 ELISA (CellSciences) according to manufacturer's instructions. Plasms IL-6 levels were determined using Mouse IL-6 ELISA (R&D Systems).
Ischemia liver tissues were fixed in 10% neutral buffered formalin for 24 hours at room temperature, paraffin-embedded, and sectioned. Liver sections (4 μm) were stained with hematoxylin-eosin (H&E) or immunostained with monoclonal antibodies anti-neutrophil (Abcam, Ab 2557, NIMP-R14) followed by goat anti-rat or goat anti-rabbit biotinylated secondary antibodies (Abcam). Embedding, sectioning and H&E staining were performed at the Animal Histopathology and Laboratory Medicine Core Facility at UNC Chapel Hill. H&E analyses were performed by the Translational Pathology Laboratory Core Facility at UNC Chapel Hill using Aperio ImageScope Software (Leica Biosystems, Concord, Canada). IHC images were captured using an HD camera attached to a bright field microscope (Leica DM 1000 LED, Leica Microsystems Inc., IL, USA) and were processed using ImageJ. For neutrophil quantitation, five 100× images were randomly selected for each sample and the average neutrophils/field were reported.
1 mg/kg of 18-mer or equal volume of sterile saline was administered by subcutaneous injection 30 minutes prior to start of the ischemia phase. Ischemia to 70% of the liver was caused by clamping the portal vein and bile duct for 60 minutes. After the clamp was removed, the reperfusion phase last 6 hours before the animals were sacrificed for collection of liver tissue and blood. For surgical controls, a sham operation was performed such that the animal experienced the same anesthesia, abdominal midline incision, and suturing as the IR mice (FIG. 11A).

human FXa (Homo sapiens) [3] = tested on: T1, human FXa (Homo sapiens); conditions: as previously demonstrated [15]; cited from earlier work
MPO = MPO activity in ischemic liver lysate after liver IR; type: in vivo, mouse; conditions: 1 mg/kg SC, 6 h reperfusion
Experimental: Liver ischemia-reperfusion (IR) surgery was performed by the Animal Surgery Core Laboratory of the McAllister Heart Institute, University of North Carolina Chapel Hill, NC. The mouse experiments were approved by the UNC Animal Care and Use Committees and complied with National Institutes of Health guidelines. Male C57BL/6J mice, approximately 8 weeks old, were used in the IR surgeries. Mice received a subcutaneous (SC) injection of 1 mg/kg oligosaccharide or the equivalent volume of saline 30 minutes prior to the surgical procedure. For the combination treatment of 12-mer-3+6-mer-AXa, equal concentration of each oligosaccharide was combined into a single solution. Under ketamine/xylazine anesthesia, an abdominal midline incision was made to expose the portal vein. […]
Ischemia liver lobe was mechanically homogenized in 50 mM CTAB 50 mM potassium phosphate pH 6 at a ratio of 100 μl buffer per 10 mg tissue. […] Total protein concentration was measured by Bradford assay. 10 μl of liver lysate was incubated with 80 μl of 0.75 mM H2O2 and 110 μl of TMB (TMB liquid reagent, ready-to-use, Sigma) for 10 minutes at 37° C. with gentle agitation. The reaction was stopped by addition of 2.5 M H2SO4 and read at 450 nm. Activity (U/g protein) was calculated as absorbance of sample minus the absorbance of the blank divided by incubation time. […]

rat model = conditions: elevated doses; cited from earlier work
[4] = kidney IR model; cited from earlier work

Compound | anti-FXa activity (anticoagulant activity) (human FXa (Homo sapiens) [1]) | HMGB1 pulldown from liver lysate (HMGB1) | plasma FXa activity (FXa (Homo sapiens)) | plasma ALT [2] | hepatic necrotic area in ischemic lobe (H&E) [2] | neutrophil infiltration into ischemic liver (immunohistochemistry) [2] | further results
GlcNS-GlcA-GlcNS-IdoA2S-GlcNS-IdoA2S-GlcNS-IdoA2S-GlcNS-IdoA2S-GlcNS-GlcA-pNP [12-mer-2] | did not display anti-FXa activity |  |  |  |  |  | 
GlcNS6S-GlcA-GlcNS6S-GlcA-GlcNS6S-GlcA-GlcNS6S-GlcA-GlcNS6S-GlcA-GlcNS6S-GlcA-pNP [12-mer-4] | did not display anti-FXa activity |  |  |  |  |  | 
CC(=N)N1CC[C@H](Oc2ccc([C@H](Cc3ccc4ccc(C(=N)N)cc4c3)C(=O)O)cc2)C1 [DX9065a] |  |  |  |  |  |  | liver IR injury (liver IR injury in rats): no protection
GlcNS6S-GlcA-GlcNS6S3S-IdoA2S-GlcNS6S-GlcA-pNP [6-mer-AXa] |  | does not pull down HMGB1 | Anticoagulant levels are similar between both treatment groups | no statistical difference in the concentration of ALT |  |  | anticoagulant activity through inhibition of FXa (human FXa (Homo sapiens) [3]): has anticoagulant activity through inhibition of FXa
GlcNS6S-GlcA-GlcNS6S3S-IdoA2S-GlcNS6S-IdoA2S-GlcNS6S-IdoA2S-GlcNS6S-IdoA2S-GlcNS6S-GlcA-pNP [12-mer-1] |  | successfully pull down HMGB1 | significantly decreased FXa activity | significantly decreased plasma ALT | decreased hepatic necrosis | decreased neutrophil infiltration | pIC50 (human FXa (Homo sapiens) [1]; with antithrombin, substrate S-2765): 7.20; decrease of MPO activity compared to the IR group (MPO): 60%; toxicity (rat model): no toxicity; renal clearance [4]: renal clearance impairment of 12-mer-1 was demonstrated
GlcNS6S-GlcA-GlcNS6S-IdoA2S-GlcNS6S-IdoA2S-GlcNS6S-IdoA2S-GlcNS6S-IdoA2S-GlcNS6S-GlcA-pNP [12-mer-3] | did not display anti-FXa activity | successfully pull down HMGB1 |  | not 12-mer-3 decreased ALT | not 12-mer-3 decreased ALT and necrosis | did not | MPO activity (MPO): 96.00 U/g protein
